Measurements: ChEMBL document CHEMBL5352392, “Design, synthesis, and biological evaluation of novel dual inhibitors of heat shock protein 90/mammalian target of rapamycin (Hsp90/mTOR) against bladder cancer cells” (Eur J Med Chem, 2022)

Columns and labels:
[1] = tested on: T-24; assay: Antiproliferative activity against human T24 cells assessed as inhibition of cell proliferation at 1 uM by CCK8 assay relative to control; assay type: functional
[2] = tested on: J82; assay: Antiproliferative activity against human J82 cells assessed as inhibition of cell proliferation by CCK8 assay; assay type: functional, cell-based
[3] = tested on: SW780; assay: Antiproliferative activity against human SW780 cells assessed as inhibition of cell proliferation at 1 uM by CCK8 assay relative to control; assay type: functional
[4] = tested on: J82; assay: Antiproliferative activity against human J82 cells assessed as inhibition of cell proliferation at 1 uM by CCK8 assay relative to control; assay type: functional
[5] = tested on: SW780; assay: Antiproliferative activity against human SW780 cells assessed as inhibition of cell proliferation by CCK8 assay; assay type: functional, cell-based
[6] = tested on: T-24; assay: Antiproliferative activity against human T24 cells assessed as inhibition of cell proliferation by CCK8 assay; assay type: functional, cell-based
[7] = target: T1, Heat shock protein HSP90 (Homo sapiens, UniProt P07900+P08238); assay: Inhibition of Hsp90 (unknown origin) by TR-FRET assay; assay type: protein assay
[8] = target: T2, Serine/threonine-protein kinase mTOR (Homo sapiens, UniProt P42345); assay: Inhibition of mTOR (unknown origin) by kinase profiling assay
[9] = target: T1, Heat shock protein HSP90; settings: dose 100.0 nM
Description: Inhibition of Hsp90 (unknown origin) at 100 nM by TR-FRET assay relative to control

[10] = target: Phosphatidylinositol 4,5-bisphosphate 3-kinase catalytic subunit alpha isoform (Homo sapiens, UniProt P42336); assay: Inhibition of PI3Kalpha (unknown origin) by kinase profiling assay
Chain of Phosphatidylinositol 4,5-bisphosphate 3-kinase catalytic subunit alpha isoform (P42336 whole entry, canonical isoform): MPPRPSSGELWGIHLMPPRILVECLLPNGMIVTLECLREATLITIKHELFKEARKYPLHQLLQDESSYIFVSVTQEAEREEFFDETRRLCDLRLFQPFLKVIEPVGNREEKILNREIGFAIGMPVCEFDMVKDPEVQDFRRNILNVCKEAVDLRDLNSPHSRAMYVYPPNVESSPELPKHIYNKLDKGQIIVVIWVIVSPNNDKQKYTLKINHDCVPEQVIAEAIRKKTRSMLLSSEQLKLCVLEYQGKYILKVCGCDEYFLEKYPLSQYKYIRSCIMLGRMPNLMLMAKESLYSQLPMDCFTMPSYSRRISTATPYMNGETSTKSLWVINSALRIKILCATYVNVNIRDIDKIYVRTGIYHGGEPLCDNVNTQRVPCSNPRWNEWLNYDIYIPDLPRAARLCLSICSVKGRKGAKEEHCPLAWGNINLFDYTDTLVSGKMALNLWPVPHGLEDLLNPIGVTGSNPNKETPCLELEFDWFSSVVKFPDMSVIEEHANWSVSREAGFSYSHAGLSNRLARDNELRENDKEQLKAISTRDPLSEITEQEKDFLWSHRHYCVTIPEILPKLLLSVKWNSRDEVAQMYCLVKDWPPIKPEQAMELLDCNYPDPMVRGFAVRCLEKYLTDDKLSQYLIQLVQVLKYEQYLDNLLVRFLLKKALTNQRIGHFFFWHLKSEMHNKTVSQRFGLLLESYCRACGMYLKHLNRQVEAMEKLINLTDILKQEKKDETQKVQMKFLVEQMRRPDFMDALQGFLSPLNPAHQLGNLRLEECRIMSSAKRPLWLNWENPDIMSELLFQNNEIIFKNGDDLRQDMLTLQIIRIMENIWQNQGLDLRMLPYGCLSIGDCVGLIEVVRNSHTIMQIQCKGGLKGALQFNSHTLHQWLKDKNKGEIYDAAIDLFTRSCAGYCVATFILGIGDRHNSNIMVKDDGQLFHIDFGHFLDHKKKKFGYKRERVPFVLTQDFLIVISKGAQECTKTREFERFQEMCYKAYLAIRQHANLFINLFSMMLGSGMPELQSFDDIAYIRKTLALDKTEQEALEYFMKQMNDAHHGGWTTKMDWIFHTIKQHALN

[11] = target: T2, Serine/threonine-protein kinase mTOR; assay: Inhibition of mTOR (unknown origin) at 100 nM by kinase profiling assay relative to control

## CCNC(=O)c1noc(-c2cc(C(C)C)c(O)cc2O)c1-c1ccc(CN2CCOCC2)cc1 [LUMINESPIB]
[1]
  inhibition at 1 µM: 38.8%
[2]
  IC50: 5200 nM
[3]
  inhibition at 1 µM: 46.4%
[4]
  inhibition at 1 µM: 35.1%
[5]
  IC50: 3950 nM
[6]
  IC50: 4930 nM

## CC(C)c1cc(C(=O)N2CCc3c(sc4nc(-c5ccc(NC(=O)Nc6cc(Cl)cc(Cl)c6)cc5)nc(N5CCOCC5)c34)C2)c(O)cc1O
[7]
  IC50: 365 nM
[8]
  IC50: 106 nM
[1]
  inhibition at 1 µM: 67%
[2]
  IC50: 1590 nM
[3]
  inhibition at 1 µM: 77.8%
[4]
  inhibition at 1 µM: 69.1%
[9]
  inhibition: 68.3%
[10]
  IC50: 5630 nM
[11]
  inhibition: 73.5%
[5]
  IC50: 690 nM
[6]
  IC50: 550 nM

## CC(C)c1cc(C(=O)N2CCc3c(sc4nc(N5CCOC(F)(F)C5)nc(N5CCOCC5)c34)C2)c(O)cc1O
[1]
  inhibition at 1 µM: 63.8%
[3]
  inhibition at 1 µM: 58.8%
[4]
  inhibition at 1 µM: 62.7%
[9]
  inhibition: 53.8%
[11]
  inhibition: 57.6%

## Cc1ccccc1NC(=O)Nc1ccc(-c2nc(N3CCOCC3)c3c4c(sc3n2)CN(C(=O)c2cc(C(C)C)c(O)cc2O)CC4)cc1
[1]
  inhibition at 1 µM: 78%
[3]
  inhibition at 1 µM: 53.7%
[4]
  inhibition at 1 µM: 66.2%
[9]
  inhibition: 62.6%
[11]
  inhibition: 68.2%

## CCNC(=O)Nc1ccc(-c2nc(N3CCOCC3)c3c4c(sc3n2)CN(C(=O)c2cc(C(C)C)c(O)cc2O)CC4)cc1
[1]
  inhibition at 1 µM: 57.9%
[3]
  inhibition at 1 µM: 70.2%
[4]
  inhibition at 1 µM: 67.6%
[9]
  inhibition: 62.2%
[11]
  inhibition: 68.6%

## CC(C)c1cc(C(=O)N2CCc3c(sc4nc(N5CCOCC5)nc(N5CCC(N(C)C)CC5)c34)C2)c(O)cc1O
[1]
  inhibition at 1 µM: 55.8%
[3]
  inhibition at 1 µM: 64.5%
[4]
  inhibition at 1 µM: 52.7%
[9]
  inhibition: 45.5%
[11]
  inhibition: 76.7%

## CC(C)c1cc(C(=O)N2CCc3c(sc4nc(-c5ccc(NC(=O)Nc6cccc(Cl)c6)cc5)nc(N5CCOCC5)c34)C2)c(O)cc1O
[7]
  IC50: 147 nM
[8]
  IC50: 82 nM
[1]
  inhibition at 1 µM: 65%
[2]
  IC50: 760 nM
[3]
  inhibition at 1 µM: 89.8%
[4]
  inhibition at 1 µM: 84.7%
[9]
  inhibition: 72.7%
[10]
  IC50: 3600 nM
[11]
  inhibition: 75.2%
[5]
  IC50: 740 nM
[6]
  IC50: 1720 nM

## CC(C)c1cc(C(=O)N2CCc3c(sc4nc(-c5ccc(NC(=O)Nc6ccc(F)cc6)cc5)nc(N5CCOCC5)c34)C2)c(O)cc1O
[1]
  inhibition at 1 µM: 76.8%
[3]
  inhibition at 1 µM: 69.8%
[4]
  inhibition at 1 µM: 57.8%
[9]
  inhibition: 63.2%
[11]
  inhibition: 77.4%

## CC(C)c1cc(C(=O)N2CCc3c(sc4nc(N5CCOCC5)nc(N5CCC(F)(F)CC5)c34)C2)c(O)cc1O
[1]
  inhibition at 1 µM: 50.3%
[3]
  inhibition at 1 µM: 52.1%
[4]
  inhibition at 1 µM: 49.8%
[9]
  inhibition: 43.6%
[11]
  inhibition: 45.1%

## CC(C)c1cc(C(=O)N2CCc3c(sc4nc(-c5ccc(NC(=O)N6CCCCC6)cc5)nc(N5CCOCC5)c34)C2)c(O)cc1O
[1]
  inhibition at 1 µM: 41.6%
[3]
  inhibition at 1 µM: 45.1%
[4]
  inhibition at 1 µM: 54.9%
[9]
  inhibition: 46.7%
[11]
  inhibition: 50.4%

## CC(C)c1cc(C(=O)N2CCc3c(sc4nc(N5CCCC5)nc(N5CCOCC5)c34)C2)c(O)cc1O
[1]
  inhibition at 1 µM: 54%
[3]
  inhibition at 1 µM: 42.1%
[4]
  inhibition at 1 µM: 43.1%
[9]
  inhibition: 46.6%
[11]
  inhibition: 52.3%

## CC(C)c1cc(C(=O)N2CCc3c(sc4nc(-c5ccc(NC(=O)Nc6cc(F)cc(F)c6)cc5)nc(N5CCOCC5)c34)C2)c(O)cc1O
[1]
  inhibition at 1 µM: 61.3%
[3]
  inhibition at 1 µM: 53.5%
[4]
  inhibition at 1 µM: 78%
[9]
  inhibition: 58.1%
[11]
  inhibition: 70.5%

## CC(C)c1cc(C(=O)N2CCc3c(sc4nc(-c5ccc(NC(=O)Nc6ccccc6)cc5)nc(N5CCOCC5)c34)C2)c(O)cc1O
[1]
  inhibition at 1 µM: 60.1%
[3]
  inhibition at 1 µM: 66.2%
[4]
  inhibition at 1 µM: 79.7%
[9]
  inhibition: 59.2%
[11]
  inhibition: 74.5%

## CC(C)c1cc(C(=O)N2CCc3c(sc4nc(N5CCOCC5)nc(N5CCCC5)c34)C2)c(O)cc1O
[1]
  inhibition at 1 µM: 57.7%
[3]
  inhibition at 1 µM: 46%
[4]
  inhibition at 1 µM: 47.9%
[9]
  inhibition: 53%
[11]
  inhibition: 40.9%

## CC(C)c1cc(C(=O)N2CCc3c(sc4nc(N5CCOC[C@@H]5C)nc(N5CCOC[C@@H]5C)c34)C2)c(O)cc1O
[7]
  IC50: 476 nM
[8]
  IC50: 73 nM
[1]
  inhibition at 1 µM: 55.4%
[2]
  IC50: 780 nM
[3]
  inhibition at 1 µM: 79.9%
[4]
  inhibition at 1 µM: 52.8%
[9]
  inhibition: 56.6%
[10]
  IC50: > 10000 nM
[11]
  inhibition: 75.4%
[5]
  IC50: 370 nM
[6]
  IC50: 1680 nM

## CC(C)c1cc(C(=O)N2CCc3c(sc4nc(-c5ccc(NC(=O)Nc6ccc(C(F)(F)F)cc6)cc5)nc(N5CCOCC5)c34)C2)c(O)cc1O
[1]
  inhibition at 1 µM: 61.3%
[3]
  inhibition at 1 µM: 61.3%
[4]
  inhibition at 1 µM: 69%
[9]
  inhibition: 62.8%
[11]
  inhibition: 66.4%

## CC(C)c1cc(C(=O)N2CCc3c(sc4nc(N5CCC(F)(F)CC5)nc(N5CCOCC5)c34)C2)c(O)cc1O
[1]
  inhibition at 1 µM: 34.4%
[3]
  inhibition at 1 µM: 37.9%
[4]
  inhibition at 1 µM: 45%
[9]
  inhibition: 36.3%
[11]
  inhibition: 41.3%

## CC(C)c1cc(C(=O)N2CCc3c(sc4nc(NCCN5CCOCC5)nc(N5CCOCC5)c34)C2)c(O)cc1O
[1]
  inhibition at 1 µM: 78%
[3]
  inhibition at 1 µM: 55.2%
[4]
  inhibition at 1 µM: 72.2%
[9]
  inhibition: 62.1%
[11]
  inhibition: 68.2%

## CC(C)c1cc(C(=O)N2CCc3c(sc4nc(N5CCOCC5)nc(N5CCOC(F)(F)C5)c34)C2)c(O)cc1O
[1]
  inhibition at 1 µM: 42.1%
[3]
  inhibition at 1 µM: 37.1%
[4]
  inhibition at 1 µM: 41.4%
[9]
  inhibition: 27.5%
[11]
  inhibition: 44.1%

## CC(C)c1cc(C(=O)N2CCc3c(sc4nc(N5CCOCC5)nc(NC5CCOCC5)c34)C2)c(O)cc1O
[1]
  inhibition at 1 µM: 29.5%
[3]
  inhibition at 1 µM: 38.9%
[4]
  inhibition at 1 µM: 37.1%
[9]
  inhibition: 38.2%
[11]
  inhibition: 33.7%

## COc1ccc(-c2ccc3c(N4CCOC[C@@H]4C)nc(N4CCOC[C@@H]4C)nc3n2)cc1CO [AZD-8055]
[1]
  inhibition at 1 µM: 73.3%
[2]
  IC50: 650 nM
[3]
  inhibition at 1 µM: 79.6%
[4]
  inhibition at 1 µM: 72.4%
[10]
  IC50: 4450 nM
[11]
  inhibition: 93.3%
[5]
  IC50: 810 nM
[6]
  IC50: 540 nM

## CC(C)c1cc(C(=O)N2CCc3c(sc4nc(-c5ccc(NC(=O)Nc6cccc(C(F)(F)F)c6)cc5)nc(N5CCOCC5)c34)C2)c(O)cc1O
[7]
  IC50: 126 nM
[8]
  IC50: 218 nM
[1]
  inhibition at 1 µM: 82.5%
[2]
  IC50: 2760 nM
[3]
  inhibition at 1 µM: 65.6%
[4]
  inhibition at 1 µM: 69.1%
[9]
  inhibition: 73.8%
[10]
  IC50: 2450 nM
[11]
  inhibition: 66.3%
[5]
  IC50: 660 nM
[6]
  IC50: 940 nM

## Cc1ccc(NC(=O)Nc2ccc(-c3nc(N4CCOCC4)c4c5c(sc4n3)CN(C(=O)c3cc(C(C)C)c(O)cc3O)CC5)cc2)cc1
[1]
  inhibition at 1 µM: 67.8%
[3]
  inhibition at 1 µM: 74.5%
[4]
  inhibition at 1 µM: 65.8%
[9]
  inhibition: 61.6%
[11]
  inhibition: 71.8%

## CC(C)c1cc(C(=O)N2CCc3c(sc4nc(-c5ccc(NC(=O)Nc6ccccc6F)cc5)nc(N5CCOCC5)c34)C2)c(O)cc1O
[1]
  inhibition at 1 µM: 70.1%
[3]
  inhibition at 1 µM: 83.7%
[4]
  inhibition at 1 µM: 78.7%
[9]
  inhibition: 70%
[11]
  inhibition: 74.8%

## CC(C)c1cc(C(=O)N2CCc3c(sc4nc(N5CCOCC5)nc(NCCN5CCOCC5)c34)C2)c(O)cc1O
[1]
  inhibition at 1 µM: 50.2%
[3]
  inhibition at 1 µM: 75%
[4]
  inhibition at 1 µM: 58.7%
[9]
  inhibition: 81.5%
[11]
  inhibition: 39.1%
